According to article PMC4832243, “Discovery of Potent VEGFR-2 Inhibitors based on Furopyrimidine and Thienopyrimidne Scaffolds as Cancer Targeting Agents” (Scientific Reports, 2016):

Tests used:
Type in all cases: cell-based
[1] = system: HCT-116; assay: NCI 60 cell line panel (SRB), HCT-116; settings: Homo sapiens; HCT-116, Colon Cancer; single dose of 10 μM; read-out: Cell Growth Percent
[2] = system: OVCAR-4; assay: NCI 60 cell line panel (SRB), OVCAR-4; settings: Homo sapiens; OVCAR-4, Ovarian Cancer; single dose of 10 μM; read-out: Cell Growth Percent
[3] = system: 786-0; assay: NCI 60 cell line panel (SRB), 786-0; settings: Homo sapiens; 786-0, Renal Cancer; single dose of 10 μM; read-out: Cell Growth Percent
[4] = system: OVCAR-5; assay: NCI 60 cell line panel (SRB), OVCAR-5; settings: Homo sapiens; OVCAR-5, Ovarian Cancer; single dose of 10 μM; read-out: Cell Growth Percent
[5] = system: MOLT-4; assay: NCI 60 cell line panel (SRB), MOLT-4; settings: Homo sapiens; MOLT-4, Leukemia; single dose of 10 μM; read-out: Cell Growth Percent
[6] = system: PC-3; assay: NCI 60 cell line panel (SRB), PC-3; settings: Homo sapiens; PC-3, Prostate Cancer; single dose of 10 μM; read-out: Cell Growth Percent
[7] = system: A549/ATCC; assay: NCI 60 cell line panel (SRB), A549/ATCC; settings: Homo sapiens, Non-Small Cell Lung Cancer, single dose of 10 μM, read-out: Cell Growth Percent
[8] = system: K-562; assay: NCI 60 cell line panel (SRB), K-562; settings: Homo sapiens, K562; K-562, Leukemia; single dose of 10 μM; read-out: Cell Growth Percent
[9] = system: DU-145; assay: NCI 60 cell line panel (SRB), DU-145; settings: Homo sapiens; DU-145, Prostate Cancer; single dose of 10 μM; read-out: Cell Growth Percent
[10] = system: NCI-H522; assay: NCI 60 cell line panel (SRB), NCI-H522; settings: Homo sapiens; NCI-H522, Non-Small Cell Lung Cancer; single dose of 10 μM; read-out: Cell Growth Percent
[11] = system: SF-268; assay: NCI 60 cell line panel (SRB), SF-268; settings: Homo sapiens; SF-268, CNS Cancer; single dose of 10 μM; read-out: Cell Growth Percent
[12] = system: RPMI-8226; assay: NCI 60 cell line panel (SRB), RPMI-8226; settings: Homo sapiens; RPMI-8226, Leukemia; single dose of 10 μM; read-out: Cell Growth Percent
[13] = system: IGROV1; assay: NCI 60 cell line panel (SRB), IGROV1; settings: Homo sapiens, IGROV-1; IGROV1, Ovarian Cancer; single dose of 10 μM; read-out: Cell Growth Percent
[14] = system: HT29; assay: NCI 60 cell line panel (SRB), HT29; settings: Homo sapiens, HT-29; HT29, Colon Cancer; single dose of 10 μM; read-out: Cell Growth Percent
[15] = system: MDA-MB-468; assay: NCI 60 cell line panel (SRB), MDA-MB-468; settings: Homo sapiens; MDA-MB-468, Breast Cancer; single dose of 10 μM; read-out: Cell Growth Percent
[16] = system: RXF 393; assay: NCI 60 cell line panel (SRB), RXF 393; settings: Homo sapiens; RXF 393, Renal Cancer; single dose of 10 μM; read-out: Cell Growth Percent
[17] = system: CAKI-1; assay: NCI 60 cell line panel (SRB), CAKI-1; settings: Homo sapiens; CAKI-1, Renal Cancer; single dose of 10 μM; read-out: Cell Growth Percent
[18] = system: A498; assay: NCI 60 cell line panel (SRB), A498; settings: Homo sapiens; A498, Renal Cancer; single dose of 10 μM; read-out: Cell Growth Percent
[19] = system: BT-549; assay: NCI 60 cell line panel (SRB), BT-549; settings: Homo sapiens; BT-549, Breast Cancer; single dose of 10 μM; read-out: Cell Growth Percent
[20] = system: SK-MEL-5; assay: NCI 60 cell line panel (SRB), SK-MEL-5; settings: Homo sapiens; SK-MEL-5, Melanoma; single dose of 10 μM; read-out: Cell Growth Percent
[21] = system: SK-MEL-28; assay: NCI 60 cell line panel (SRB), SK-MEL-28; settings: Homo sapiens; SK-MEL-28, Melanoma; single dose of 10 μM; read-out: Cell Growth Percent
[22] = system: CCRF-CEM; assay: NCI 60 cell line panel (SRB), CCRF-CEM; settings: Homo sapiens, Leukemia, single dose of 10 μM, read-out: Cell Growth Percent
[23] = system: NCI-H23; assay: NCI 60 cell line panel (SRB), NCI-H23; settings: Homo sapiens; NCI-H23, Non-Small Cell Lung Cancer; single dose of 10 μM; read-out: Cell Growth Percent
[24] = system: SW-620; assay: NCI 60 cell line panel (SRB), SW-620; settings: Homo sapiens; SW-620, Colon Cancer; single dose of 10 μM; read-out: Cell Growth Percent
[25] = system: T-47D; assay: NCI 60 cell line panel (SRB), T-47D; settings: Homo sapiens, T47D, Breast Cancer, single dose of 10 μM, read-out: Cell Growth Percent
[26] = system: KM12; assay: NCI 60 cell line panel (SRB), KM12; settings: Homo sapiens; KM12, Colon Cancer; single dose of 10 μM; read-out: Cell Growth Percent
[27] = system: MALME-3M; assay: NCI 60 cell line panel (SRB), MALME-3M; settings: Homo sapiens, Melanoma, single dose of 10 μM, read-out: Cell Growth Percent
[28] = system: HOP-92; assay: NCI 60 cell line panel (SRB), HOP-92; settings: Homo sapiens; HOP-92, Non-Small Cell Lung Cancer; single dose of 10 μM; read-out: Cell Growth Percent
[29] = system: OVCAR-3; assay: NCI 60 cell line panel (SRB), OVCAR-3; settings: Homo sapiens; OVCAR-3, Ovarian Cancer; single dose of 10 μM; read-out: Cell Growth Percent
[30] = system: UO-31; assay: NCI 60 cell line panel (SRB), UO-31; settings: Homo sapiens; UO-31, Renal Cancer; single dose of 10 μM; read-out: Cell Growth Percent
[31] = system: LOX IMVI; assay: NCI 60 cell line panel (SRB), LOX IMVI; settings: Homo sapiens, Melanoma, single dose of 10 μM, read-out: Cell Growth Percent
[32] = system: NCI-H460; assay: NCI 60 cell line panel (SRB), NCI-H460; settings: Homo sapiens; NCI-H460, Non-Small Cell Lung Cancer; single dose of 10 μM; read-out: Cell Growth Percent
[33] = system: NCI-H322M; assay: NCI 60 cell line panel (SRB), NCI-H322M; settings: Homo sapiens, Non-Small Cell Lung Cancer, single dose of 10 μM, read-out: Cell Growth Percent
[34] = system: SNB-19; assay: NCI 60 cell line panel (SRB), SNB-19; settings: Homo sapiens; SNB-19, CNS Cancer; single dose of 10 μM; read-out: Cell Growth Percent

| Structure (SMILES) | activity at 10 µM [1] [%] | activity at 10 µM [2] [%] | activity at 10 µM [3] [%] | activity at 10 µM [4] [%] | activity at 10 µM [5] [%] | activity at 10 µM [6] [%] | activity at 10 µM [7] [%] | activity at 10 µM [8] [%] | activity at 10 µM [9] [%] | activity at 10 µM [10] [%] | activity at 10 µM [11] [%] | activity at 10 µM [12] [%] | activity at 10 µM [13] [%] | activity at 10 µM [14] [%] | activity at 10 µM [15] [%] | activity at 10 µM [16] [%] | activity at 10 µM [17] [%] | activity at 10 µM [18] [%] | activity at 10 µM [19] [%] | activity at 10 µM [20] [%] | other results |
| --- | --- | --- | --- | --- | --- | --- | --- | --- | --- | --- | --- | --- | --- | --- | --- | --- | --- | --- | --- | --- | --- |
| CCOC(=O)c1c(C)oc2ncnc(Nc3ccc(C(=O)Nc4cccc(Cl)c4)cc3)c12 [Compound 14a] | 85.5 | 98 | 96.3 | 116 | 94 | 78.3 | 95.3 | 87 | 75.9 | 78 | 103 | 94.6 | 105 | 83.6 | 90.9 | 76.8 | 99.2 | 92.4 | 87.6 | 92.2 | activity at 10 µM [21]: 105%; activity at 10 µM [22]: 93.8%; activity at 10 µM [23]: 100%; activity at 10 µM [24]: 106%; activity at 10 µM [25]: 98.2%; activity at 10 µM [26]: 93.8%; activity at 10 µM [27]: 122%; activity at 10 µM [28]: 92%; activity at 10 µM [29]: 110%; activity at 10 µM [30]: 89.5%; activity at 10 µM [31]: 93.1%; activity at 10 µM [32]: 100%; activity at 10 µM [33]: 99.7%; activity at 10 µM [34]: 102% |
| CCOC(=O)c1c(C)oc2ncnc(Nc3ccc(C(=O)Nc4ccc(OC)cc4)cc3)c12 [Compound 14b] | 85.1 | 95.6 | 92.1 | 114 | 92.3 | 83.6 | 93.3 | 107 | 97.1 | 84 | 101 | 91.3 | 108 | 81.1 | 102 | 92 | 96.6 | 75.3 | 61.9 | 87.9 | activity at 10 µM [21]: 95.2%; activity at 10 µM [22]: 89.1%; activity at 10 µM [23]: 95.6%; activity at 10 µM [24]: 112%; activity at 10 µM [25]: 91%; activity at 10 µM [26]: 96.1%; activity at 10 µM [27]: 120%; activity at 10 µM [28]: 78.8%; activity at 10 µM [29]: 110%; activity at 10 µM [30]: 94.3%; activity at 10 µM [31]: 93.2%; activity at 10 µM [32]: 97%; activity at 10 µM [33]: 112%; activity at 10 µM [34]: 108% |
